Data on 6 substances can be found in patent US7939510B2, “Di(uridine 5′-)tetraphosphate and salts thereof” (priority 1997, dated 2011).

The subject of one series is rabbits. Put plainly: Local ocular tolerance and subchronic ocular toxicity study in rabbits. Type of series: in vivo. Particulars: multiple daily administrations over six weeks.
Series [1] is classed as physicochemical. The method, then: The maximum solubility in water was thus determined to be ca. 900 mg/mL. […] The tetrasodium salt of P^1,P^4-di(uridine 5′-) tetraphosphate was thus determined to have an excellent solubility and stability profile suitable for pharmaceutical applications. […]
Series [2] is described as follows: Nonclinical toxicologic profile (overall conclusion from the toxicity studies).
Description: (§1) A study in rabbits examined local ocular tolerance and subchronic ocular toxicity after multiple daily administrations over a six-week period.
(§2) A study in rabbits examines local ocular tolerance and subchronic ocular toxicity after multiple daily administrations over a six-week period.
The subject of series [3] is normal healthy male volunteers. In kind it is in vivo, human.
Protocol: Forty non-smokers and 35 smokers were evaluated in 5 dosing cohorts of 16 volunteers, comprised of 12 receiving a single aerosolized dose of P^1,P^4-di(uridine 5′-) tetraphosphate, tetrasodium salt (20-400 mg) and 4 receiving placebo (normal saline).
A further series has as its system dog. Nature of the series: Single-dose acute inhalation toxicity study in dog. In kind it is in vivo. The following applies: dogs.
Another series deals with rat. Put plainly: Single-dose acute inhalation toxicity study in rat. In kind it is in vivo. Particulars: rats.
The next series deals with dogs. Put plainly: Single-dose acute intravenous toxicity study in dogs. In kind it is in vivo.

Where two headings read alike, the source gives them in different places.

Description for rabbits: as §1, §2

With “P^1,P^4-di(uridine 5′-)tetraphosphate, disodiumdipotassium salt”, in the series with rabbits (present-tense example), the “adverse findings in ocular toxicology studies” value is reported as “No adverse findings”. Besides, in series [1], the stability profile result is listed as “excellent”. The toxicology profile result in series [2] (present-tense example) is “excellent toxicology profile with a wide safety margin”.

As for “P^1,P^4-di(uridine 5′-)tetraphosphate, monolithiummonopotassiumdisodium salt”, the stability profile entry in series [1] is “excellent”.

For “P^1,P^4-di(uridine 5′-)tetraphosphate, monopotassiumtrilithium salt”, in the series with rabbits (present-tense example), the “adverse findings in ocular toxicology studies” value was “No adverse findings”. Besides, the stability profile entry in series [1] is recorded as “excellent”. Besides, the toxicology profile result in series [2] (present-tense example) is “excellent toxicology profile with a wide safety margin”.

With “P^1,P^4-di(uridine 5′-)tetraphosphate, tetralithium salt”, in the series on rabbits (present-tense example), the “adverse findings in ocular toxicology studies” value is “No adverse findings”. The stability profile entry in series [1] is listed as “excellent”. Moreover, the toxicology profile entry in series [2] (present-tense example) is listed as “excellent toxicology profile with a wide safety margin”.

For the substance “P^1,P^4-di(uridine 5′-)tetraphosphate, tetrapotassium salt”, in the series with rabbits (present-tense example), the “adverse findings in ocular toxicology studies” value is reported as “No adverse findings”. In series [1], the stability profile entry is “excellent”. Further, in series [2] (present-tense example), the toxicology profile entry is given as “excellent toxicology profile with a wide safety margin”.

Turning to “P^1,P^4-di(uridine 5′-)tetraphosphate, tetrasodium salt”, the “stimulating the expectoration of sputum compared to placebo” value in series [3] (conclusion) is reported as “effective”. The safety and tolerability entry in series [3] (in vivo) is “safe and well-tolerated”. In addition, the “effect to induce the expectoration of sputum” value in series [3] (non-smokers) is recorded as “observed”. In series [3] (smokers), the “stimulation of sputum expectoration over the next hour of sputum collection” value is on record as “sustained”. Further, in the series with dog, the acute toxicity entry was “low degree of acute toxicity”. In the series with rabbits, the “adverse findings in ocular toxicology studies” value is given as “No adverse findings”. The acute toxicity entry with rat is on record as “low degree of acute toxicity”. Besides, in series [1], the degradation result is recorded as “less than 1.5%”, the “maximum solubility in water” value is on record as “ca. 900 mg/mL”, the solubility profile result is on record as “excellent” and the stability profile result is on record as “excellent”. Further, the toxicology profile entry in series [2] is listed as “excellent toxicology profile with a wide safety margin”. In addition, the acute toxicity result with dogs is “low degree of acute toxicity”.
